Measured values from patent publication US7960408B2, “Quinolinyl and benzothiazolyl modulators” (Amgen Inc., priority 2000, dated 2011).
pIC50: −log10 of the molar value.

Legend:
PPARγ = molecular target: T1, PPARγ (Homo sapiens, UniProt P37231); assay: PPARγ ligand binding assay utilizing [3H]-BRL 49653 as the radioligand; details: concentration required to reduce by 50% the specific binding of [3H]-BRL 49653
T1 construct: made in house
T1 sequence (P37231 1-505): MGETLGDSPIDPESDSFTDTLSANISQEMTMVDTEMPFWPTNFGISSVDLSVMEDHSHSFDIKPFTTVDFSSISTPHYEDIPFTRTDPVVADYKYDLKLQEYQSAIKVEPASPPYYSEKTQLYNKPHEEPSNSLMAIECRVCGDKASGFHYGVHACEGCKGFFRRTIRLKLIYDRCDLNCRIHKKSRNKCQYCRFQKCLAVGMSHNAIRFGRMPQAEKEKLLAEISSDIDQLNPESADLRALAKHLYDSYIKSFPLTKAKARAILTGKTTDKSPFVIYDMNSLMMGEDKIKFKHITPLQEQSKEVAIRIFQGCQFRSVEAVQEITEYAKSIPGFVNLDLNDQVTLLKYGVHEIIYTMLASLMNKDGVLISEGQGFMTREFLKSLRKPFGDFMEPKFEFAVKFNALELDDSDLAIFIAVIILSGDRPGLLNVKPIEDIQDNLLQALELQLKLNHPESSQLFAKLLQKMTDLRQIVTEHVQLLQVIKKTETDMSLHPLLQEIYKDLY
Description: The compounds of the present invention can be evaluated for modulation of the PPARγ receptor using assays such as those described in Jiang, et al., Nature 391:82-86 (1998), Ricote, et al., Nature 391:79-82 (1998) and Lehmann, et al., J. Biol. Chem. 270(12): 12953-12956 (1995). Alternatively, the compounds can be evaluated for their ability to displace radiolabeled BRL 49653 from a PPARγ-GST fusion protein as follows:
PPARγ-GST fusion protein (prepared according to standard procedures), [^3H]—BRL 49653 having 50 Ci/mmol specific activity, Polyfiltronics Unifilter 350 filtration plate and glutathione-Sepharose® beads (from Pharmacia: washed twice with 10× binding buffer in which BSA and DTI can be left out).
Binding buffer (10 mM Tris-HCl, pH 8.0, 50 mM KCI, 10 mM DTT, 0.02% BSA and 0.01% NP-40) is added in 80-μL amounts to the wells of the filtration plate. The test compound is then added in 10 μL of DMSO. The PPARγ-GST fusion protein and radiolabeled BRL compound are premixed in binding buffer containing 10 mM DTT and added in 10-μL amounts to the wells of the plate to provide final concentrations of 1 μg/well of PPARγ-GST fusion protein and 10 nM [^3H]—BRL 49653 compound. The plate is incubated for 15 min. Glutathione-agarose bead is added in 50 μL of binding buffer, and the plate is vigorously shaken for one hour. The plate is washed four times with 200 μL/well of binding buffer (without BSA and DTT). The bottom of the plate is sealed and 200 μL/well of scintillation cocktail is added. The top of the plate is then sealed and the radioactivity is determined.
IC50 values are defined as the concentration of test compounds required to reduce by 50% the specific binding of [^3H]—BRL 49653 and are represented by (+) <30 μM; (++) <10 μM; (+++) <1 μM.

Structure (SMILES) | pIC50 (PPARγ) | melting point [°C]
O=S(=O)(Nc1cc(Cl)c(Sc2cnc3ccccc3c2)c(Cl)c1)c1ccccc1Cl [Compound 3] | > 6.00 | 219.6
O=C(O)c1ccc2ncc(Oc3c(Cl)cc(NS(=O)(=O)c4ccc(Cl)cc4Cl)cc3Cl)cc2c1 [Compound 47, 3-[2,6-Dichloro-4-(2,4-dichloro-benzenesulfonylamino)-phenoxy]-quinoline-6-carboxylic acid] | > 6.00 | 228 to 232
O=C(O)c1cccc2cc(Oc3c(Cl)cc(NS(=O)(=O)c4ccc(Cl)cc4Cl)cc3Cl)cnc12 [Compound 48, 3-[2,6-Dichloro-4-(2,4-dichloro-benzenesulfonylamino)-phenoxy]-quinoline-8-carboxylic acid] | > 6.00 | 263 to 266
O=S(=O)(Nc1cc(Cl)c(Oc2nc3ccc(Cl)cc3s2)c(Cl)c1)c1ccc(C(F)(F)F)cc1Cl [Compound 103, 2-Chloro-N-[3,5-dichloro-4-(6-chloro-benzothiazol-2-yloxy)-phenyl]-4-trifluoromethyl-benzenesulfonamide] | > 6.00 | 82 to 84
O=S(=O)(Nc1cc(Cl)c(Oc2nc3ccc(Cl)cc3s2)c(Cl)c1)c1ccc(Cl)cc1Cl [Compound 104, 2,4-Dichloro-N-[3,5-dichloro-4-(6-chloro-benzothiazol-2-yloxy)-phenyl]benzenesulfonamide] | 5.00 to 6.00 | 73 to 75
COc1ccc2nc(Oc3c(Cl)cc(NS(=O)(=O)c4ccc(C(F)(F)F)cc4Cl)cc3Cl)sc2c1 [Compound 106, 2-Chloro-N-[3,5-dichloro-4-(6-methoxybenzothiazol-2-yloxy)-phenyl]-4-trifluoromethyl-benzenesulfonamide] | > 6.00 | 164 to 165
O=[N+]([O-])c1cc(C(F)(F)F)ccc1S(=O)(=O)Nc1cc(Cl)c(Oc2nc3ccc(Cl)cc3s2)c(Cl)c1 [Compound 435, N-[3,5-Dichloro-4-(6-chloro-benzothiazol-2-yloxy)-phenyl]-2-nitro-4-trifluoromethyl-benzenesulfonamide] | > 6.00 | –
CC(=O)c1ccc(S(=O)(=O)Nc2cc(Cl)c(Oc3nc4ccc(Cl)cc4s3)c(Cl)c2)cc1 [Compound 436, 4-Acetyl-N-[3,5-dichloro-4-(6-chloro-benzothiazol-2-yloxy)-phenyl]-benzenesulfonamide] | 5.00 to 6.00 | –
O=[N+]([O-])c1ccc2nc(Oc3c(Cl)cc(NS(=O)(=O)c4ccc(C(F)(F)F)cc4Cl)cc3Cl)sc2c1 [Compound 438, 2-Chloro-N-[3,5-dichloro-4-(6-nitro-benzothiazol-2-yloxy)-phenyl]-4-trifluoromethyl-benzenesulfonamide] | > 6.00 | –
CS(=O)(=O)Nc1ccc2nc(Oc3c(Cl)cc(NS(=O)(=O)c4ccc(C(F)(F)F)cc4Cl)cc3Cl)sc2c1 [Compound 440, 2-Chloro-N-[3,5-dichloro-4-(6-methanesulfonylamino-benzothiazol-2-yloxy)-phenyl]-4-trifluoromethyl-benzenesulfonamide] | > 6.00 | –
CS(=O)(=O)c1ccc2nc(Oc3c(Cl)cc(NS(=O)(=O)c4ccc(C(F)(F)F)cc4Cl)cc3Cl)sc2c1 [Compound 441, 2-Chloro-N-[3,5-dichloro-4-(6-methanesulfonyl-benzothiazol-2-yloxy)-phenyl]-4-trifluoromethyl-benzenesulfonamide] | > 6.00 | –
O=[N+]([O-])c1ccc2nc(Oc3ccc(NS(=O)(=O)c4ccc(C(F)(F)F)cc4Cl)cc3Cl)sc2c1 [Compound 442, 2-Chloro-N-[3-chloro-4-(6-nitro-benzothiazol-2-yloxy)-phenyl]-4-trifluoromethyl-benzenesulfonamide] | > 6.00 | –
CS(=O)(=O)Nc1ccc2nc(Oc3ccc(NS(=O)(=O)c4ccc(C(F)(F)F)cc4Cl)cc3Cl)sc2c1 [Compound 444, 2-Chloro-N-[3-chloro-4-(6-methanesulfonylamino-benzothiazol-2-yloxy)-phenyl]-4-trifluoromethyl-benzenesulfonamide] | > 6.00 | –
CS(=O)(=O)c1ccc2nc(Oc3ccc(NS(=O)(=O)c4ccc(C(F)(F)F)cc4Cl)cc3Cl)sc2c1 [Compound 445, 2-Chloro-N-[3-chloro-4-(6-methanesulfonyl-benzothiazol-2-yloxy)-phenyl]-4-trifluoromethyl-benzenesulfonamide] | > 6.00 | –
O=[N+]([O-])c1ccc2sc(Oc3c(Cl)cc(NS(=O)(=O)c4ccc(C(F)(F)F)cc4Cl)cc3Cl)nc2c1 [Compound 455, 2-Chloro-N-[3,5-dichloro-4-(5-nitro-benzothiazol-2-yloxy)phenyl]-4-trifluoromethyl-benzenesulfonamide] | 5.00 to 6.00 | –
CS(=O)(=O)Nc1ccc2sc(Oc3c(Cl)cc(NS(=O)(=O)c4ccc(C(F)(F)F)cc4Cl)cc3Cl)nc2c1 [Compound 457, 2-Chloro-N-[3,5-dichloro-4-(5-methanesulfonylamino-benzothiazol-2-yloxy)-phenyl]-4-trifluoromethyl-benzenesulfonamide] | > 6.00 | –
CS(=O)(=O)c1ccc2sc(Oc3c(Cl)cc(NS(=O)(=O)c4ccc(C(F)(F)F)cc4Cl)cc3Cl)nc2c1 [Compound 458, 2-Chloro-N-[3,5-dichloro-4-(5-methanesulfonyl-benzothiazol-2-yloxy)-phenyl]-4-trifluoromethyl-benzenesulfonamide] | > 6.00 | –
CC(C)(C)c1ccc(S(=O)(=O)Nc2cc(Cl)cc(Oc3nc4cc(Cl)ccc4s3)c2)cc1 [Compound 501, 4-tert-Butyl-N-[3-chloro-5-(5-chloro-benzothiazole-2-yloxy)]-benzenesulfonamide] | < 4.52 | –
COc1ccc(OC)c(S(=O)(=O)Nc2cc(Cl)cc(Oc3nc4cc(Cl)ccc4s3)c2)c1 [Compound 502, N-[3-Chloro-5-(5-chloro-benzothiazole-2-yloxy)-phenyl]-2,5-dimethoxybenzenesulfonamide] | < 4.52 | –
O=S(=O)(Nc1ccc(Oc2nc3c(Cl)cccc3s2)c(Cl)c1)c1ccc(C(F)(F)F)cc1Cl [Compound 503, 2-Chloro-N-[3-chloro-4-(4-chloro-benzothiazol-2-oxy)-phenyl]-4-trifluoromethylbenzenesulfonamide] | 4.52 to 5.00 | –
Cc1cccc2sc(Oc3ccc(NS(=O)(=O)c4ccc(C(F)(F)F)cc4Cl)cc3Cl)nc12 [Compound 504, 2-Chloro-N-[3-chloro-4-(4-methyl-benzothiazol-2-oxy)-phenyl]-4-trifluoromethylbenzenesulfonamide] | 4.52 to 5.00 | –
Cc1cccc2sc(Oc3c(Cl)cc(NS(=O)(=O)c4ccc(C(F)(F)F)cc4Cl)cc3Cl)nc12 [Compound 505, 2-Chloro-N-[3,5-dichloro-4-(4-methyl-benzothiazol-2-oxy)-phenyl]-4-trifluoromethylbenzenesulfonamide] | 4.52 to 5.00 | –
